Where two headings read alike, the source gives them in different places.
How the values were obtained:
DosT = DosT (Mycobacterium tuberculosis, UniProt P9WGK1); assay type: biochemical
Mtb Erdman = test: microbe, parasite or virus in culture; settings: Mycobacterium tuberculosis, 240 h, read-out: reduction of Mtb viability in the presence of 5 μM INH relative to cultures not treated with INH
TAG accumulation = assay type: cell-based, Mycobacterium tuberculosis

DosT, sequence (P9WGK1 whole entry): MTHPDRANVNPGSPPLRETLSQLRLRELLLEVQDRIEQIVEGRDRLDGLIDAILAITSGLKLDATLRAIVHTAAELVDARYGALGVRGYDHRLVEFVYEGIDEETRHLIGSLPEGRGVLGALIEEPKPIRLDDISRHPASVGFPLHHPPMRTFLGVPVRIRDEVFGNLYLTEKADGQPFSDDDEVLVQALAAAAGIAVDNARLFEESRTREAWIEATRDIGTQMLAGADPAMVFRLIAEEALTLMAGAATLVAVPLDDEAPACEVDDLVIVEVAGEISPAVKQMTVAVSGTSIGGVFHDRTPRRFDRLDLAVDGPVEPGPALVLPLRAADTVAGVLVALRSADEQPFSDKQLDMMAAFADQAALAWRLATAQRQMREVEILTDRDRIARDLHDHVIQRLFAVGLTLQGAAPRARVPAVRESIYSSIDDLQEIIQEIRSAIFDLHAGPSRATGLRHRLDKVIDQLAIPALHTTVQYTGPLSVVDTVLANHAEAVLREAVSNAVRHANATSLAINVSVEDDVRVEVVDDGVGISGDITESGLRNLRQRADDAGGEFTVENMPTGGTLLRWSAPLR

## O=C(Nc1cccc(O)c1)c1cccc(NC(=O)c2cccs2)c1 [HC103A, N-[3-[(3 hydroxyphenyl)carbamoyl]phenyl]thiophene-2-carboxamide]
DosT
  effect on redox status of DosT heme: no impact on the redox status
Mtb Erdman
  inhibition at 40 µM: ~30%
TAG accumulation
  reduction in TAG accumulation: 56%

## C[C@@H]1CC[C@H]2[C@@H](C)C(=O)O[C@@H]3O[C@]4(C)CC[C@@H]1[C@]32OO4 [HC101A, artemisinin, reference compound]
DosT; DTN-reduced DosT
  concentration at which artemisinin modulates DosT heme / inhibits DosT: 50 µM
Mtb Erdman
  inhibition at 40 µM: ~30%
TAG accumulation; CDC1551, 40 μM, 6 days
  reduction in TAG accumulation: 74%

## C[C@@H]1CC(C)(C)C[C@]2(C1)NC(=O)NC2=O (racemic) [HC102A, 7,7,9-trimethyl-1,3-diazaspiro[4.5]decane-2,4-dione]
DosT; UV-visible spectra
  effect on redox status of DosT heme: no impact on the redox status
Mtb Erdman
  inhibition at 40 µM: ~30%
TAG accumulation; CDC1551, 40 μM, 6 days
  reduction in TAG accumulation: 67%
